According to paper PMC7848910, “Multimodularity of a GH10 Xylanase Found in the Termite Gut Metagenome” (Applied and Environmental Microbiology, 2021):

What was measured:
Assay in all cases: microscale thermophoresis, initial fluorescence analysis, RED-NHS labelled protein
Type in all cases: binding
Conditions in all cases: 50 mM phosphate pH 7, 0.05% Pluronic F-127
[1] = biological target: T1, Pm25ΔCBMs (M6; M7 = Pm25ΔCBMs E546A) (termite gut metagenome, UniProt S0DFK9, E546A, form not given)
T1 construct: gene Pm25; Pm25 without its two inserted CBM4s (catalytic domain 66-151 and 514-753); synthetic gene, E. coli Tuner(DE3), TALON-purified

[2] = biological target: T2, CBM4-1 (M8) (termite gut metagenome, UniProt S0DFK9)
T2 construct: gene Pm25; isolated CBM4-1 domain, L167-L320 by primer name (domain 161-321), pET28a(+), E. coli Tuner(DE3), TALON-purified

[3] = biological target: T3, CBM4-2 (M9) (termite gut metagenome, UniProt S0DFK9)
T3 construct: gene Pm25; isolated CBM4-2 domain, D332-D484 by primer name (domain 324-486), pET28a(+), E. coli Tuner(DE3), TALON-purified
T3 sequence (S0DFK9 332-484 limits assumed): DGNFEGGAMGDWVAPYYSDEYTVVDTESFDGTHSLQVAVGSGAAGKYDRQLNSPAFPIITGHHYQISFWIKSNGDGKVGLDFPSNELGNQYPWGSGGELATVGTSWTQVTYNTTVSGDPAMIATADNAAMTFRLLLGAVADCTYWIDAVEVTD

T2 sequence (S0DFK9 167-320 limits assumed): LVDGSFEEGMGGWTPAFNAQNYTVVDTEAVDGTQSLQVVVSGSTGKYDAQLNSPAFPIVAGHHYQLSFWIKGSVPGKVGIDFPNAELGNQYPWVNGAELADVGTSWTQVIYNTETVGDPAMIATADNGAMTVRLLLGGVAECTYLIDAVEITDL
T1 sequence (S0DFK9 30-160 limits assumed, stated change not applied): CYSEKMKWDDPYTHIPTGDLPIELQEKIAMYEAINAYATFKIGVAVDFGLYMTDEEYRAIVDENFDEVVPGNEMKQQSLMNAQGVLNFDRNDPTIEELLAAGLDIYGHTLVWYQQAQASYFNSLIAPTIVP
T1 sequence (S0DFK9 487-776 E546A limits assumed): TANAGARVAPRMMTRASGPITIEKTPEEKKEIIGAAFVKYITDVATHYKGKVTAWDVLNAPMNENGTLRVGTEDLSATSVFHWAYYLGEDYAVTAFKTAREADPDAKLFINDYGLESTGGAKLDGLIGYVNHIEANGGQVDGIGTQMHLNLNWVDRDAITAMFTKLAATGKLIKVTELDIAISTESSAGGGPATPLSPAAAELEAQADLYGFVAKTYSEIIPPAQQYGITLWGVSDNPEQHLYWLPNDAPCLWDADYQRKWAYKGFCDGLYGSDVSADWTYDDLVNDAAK

Kd [1]: 1500 ± 200 µM | Kd [2]: 4700 ± 400 µM | Kd [3]: 1800 ± 100 µM
Structure (SMILES): OC1OC[C@@H](O[C@@H]2OC[C@@H](O[C@@H]3OC[C@@H](O[C@@H]4OC[C@@H](O[C@@H]5OC[C@@H](O[C@@H]6OC[C@@H](O)[C@H](O)[C@H]6O)[C@H](O)[C@H]5O)[C@H](O)[C@H]4O)[C@H](O)[C@H]3O)[C@H](O)[C@H]2O)[C@H](O)[C@H]1O (stereo partly drawn) [X6, xylohexaose]
